Drawing on ChEMBL document CHEMBL5212743, “Selectivity Literature for EUbOPEN Chemogenomics Library wave 3” (2023), this text covers % of control for one compound.

Holding throughout (details): at 1 µM
In experiment [1] the test system is T1, Receptor-type tyrosine-protein kinase FLT3 (Homo sapiens), P36888 [D835V].
T1 sequence (whole entry): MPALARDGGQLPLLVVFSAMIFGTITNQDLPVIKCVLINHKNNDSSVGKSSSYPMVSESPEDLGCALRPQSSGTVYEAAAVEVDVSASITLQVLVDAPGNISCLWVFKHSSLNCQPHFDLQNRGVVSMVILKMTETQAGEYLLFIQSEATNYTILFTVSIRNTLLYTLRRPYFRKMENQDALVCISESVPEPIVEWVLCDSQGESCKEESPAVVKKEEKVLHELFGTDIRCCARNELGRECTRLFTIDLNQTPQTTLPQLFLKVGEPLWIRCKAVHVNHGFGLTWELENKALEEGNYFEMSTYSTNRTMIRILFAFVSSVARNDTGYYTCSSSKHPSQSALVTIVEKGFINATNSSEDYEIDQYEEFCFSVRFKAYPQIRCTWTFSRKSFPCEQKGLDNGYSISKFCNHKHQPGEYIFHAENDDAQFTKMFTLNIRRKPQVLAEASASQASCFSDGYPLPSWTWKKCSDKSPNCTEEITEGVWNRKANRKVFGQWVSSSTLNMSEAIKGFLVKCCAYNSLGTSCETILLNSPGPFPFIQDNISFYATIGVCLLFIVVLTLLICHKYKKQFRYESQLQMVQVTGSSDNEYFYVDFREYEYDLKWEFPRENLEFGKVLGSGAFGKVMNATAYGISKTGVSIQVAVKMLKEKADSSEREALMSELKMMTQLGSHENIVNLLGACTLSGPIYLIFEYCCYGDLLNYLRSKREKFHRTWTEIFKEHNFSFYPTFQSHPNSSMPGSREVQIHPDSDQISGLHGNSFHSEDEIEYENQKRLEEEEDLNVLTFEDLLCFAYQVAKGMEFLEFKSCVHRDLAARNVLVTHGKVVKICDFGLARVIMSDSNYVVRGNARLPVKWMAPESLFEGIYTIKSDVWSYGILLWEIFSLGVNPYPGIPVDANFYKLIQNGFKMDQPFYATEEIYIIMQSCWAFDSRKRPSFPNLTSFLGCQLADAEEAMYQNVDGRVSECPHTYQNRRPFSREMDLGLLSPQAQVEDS
In words: (§1) Selectivity interaction (KinomeScan (DiscoverX)) EUB0000702a FLT3.

For experiment [2], the system named is T2, Receptor-type tyrosine-protein kinase FLT3 (Homo sapiens), P36888 [D835Y].
T2 sequence (whole entry): T1 sequence (whole entry) with V835Y
Described as §1.

The target of experiment [3] is Receptor-type tyrosine-protein kinase FLT3 (Homo sapiens) (UniProt P36888). Described as §1.
Experiment [4] relates to Receptor-type tyrosine-protein kinase FLT3 (Homo sapiens), P36888 [UNDEFINED MUTATION]. The description is as §1.
The test system of experiment [5] is T3, Receptor-type tyrosine-protein kinase FLT3 (Homo sapiens), P36888 [N841I].
T3 sequence (whole entry): T1 sequence (whole entry) with V835D, N841I
The experiment is described as §1.

Residue numbers refer to the chain shown, from its start.

Regarding `CN(c1ccnc(CNc2nc(Nc3ccc4c(c3)CC(=O)N4)ncc2C(F)(F)F)n1)S(C)(=O)=O` [PF-00911705], the % of control is 1.5% in experiment [1]; 2% in experiment [2]; 5.5% in experiment [3]; 0.7% in experiment [4]; 0% in experiment [5].
